According to PubChem BioAssay (NCI):
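Test compounds were applied to cells in 96-well plates for 48 hours at 5 doses. The concentration for full growth arrest is given as TGI.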

What was measured:
Assay in all cases: DTP human tumour cell line panel, 48 h
786-0 renal = system: 786-0 renal
A498 renal = system: A498 renal
A549 NSCLC = system: A549 NSCLC
ACHN renal = system: ACHN renal
BT-549 breast = system: BT-549 breast
CAKI-1 renal = system: CAKI-1 renal
CCRF-CEM leukemia = system: CCRF-CEM leukemia
COLO 205 colon = system: COLO 205 colon
DU-145 prostate = system: DU-145 prostate
EKVX NSCLC = system: EKVX NSCLC
HCC-2998 colon = system: HCC-2998 colon
HCT-116 colon = system: HCT-116 colon
HCT-15 colon = system: HCT-15 colon
HL-60(TB) leukemia = system: HL-60(TB) leukemia
HOP-62 NSCLC = system: HOP-62 NSCLC
HOP-92 NSCLC = system: HOP-92 NSCLC
HS 578T breast = system: HS 578T breast
HT29 colon = system: HT29 colon
IGROV1 ovarian = system: IGROV1 ovarian
K-562 leukemia = system: K-562 leukemia
KM12 colon = system: KM12 colon
LOX IMVI melanoma = system: LOX IMVI melanoma
M14 melanoma = system: M14 melanoma
MALME-3M melanoma = system: MALME-3M melanoma
MCF7 breast = system: MCF7 breast
MDA-MB-231 breast = system: MDA-MB-231 breast
MDA-MB-435 = system: MDA-MB-435
MDA-N = system: MDA-N
MOLT-4 leukemia = system: MOLT-4 leukemia
NCI-H226 lung = system: NCI-H226 lung
NCI-H23 lung = system: NCI-H23 lung
NCI-H460 lung = system: NCI-H460 lung
NCI-H522 lung = system: NCI-H522 lung
NCI/ADR-RES ovarian = system: NCI/ADR-RES ovarian
OVCAR-3 ovarian = system: OVCAR-3 ovarian
OVCAR-4 ovarian = system: OVCAR-4 ovarian
OVCAR-5 ovarian = system: OVCAR-5 ovarian
OVCAR-8 ovarian = system: OVCAR-8 ovarian
PC-3 prostate = system: PC-3 prostate
RPMI-8226 leukemia = system: RPMI-8226 leukemia
RXF 393 renal = system: RXF 393 renal
SF-268 CNS = system: SF-268 CNS
SF-295 CNS = system: SF-295 CNS
SF-539 CNS = system: SF-539 CNS
SK-MEL-2 melanoma = system: SK-MEL-2 melanoma
SK-MEL-28 melanoma = system: SK-MEL-28 melanoma
SK-MEL-5 melanoma = system: SK-MEL-5 melanoma
SK-OV-3 ovarian = system: SK-OV-3 ovarian
SN12C renal = system: SN12C renal
SNB-19 CNS = system: SNB-19 CNS
SNB-75 CNS = system: SNB-75 CNS
SR leukemia = system: SR leukemia
SW-620 colon = system: SW-620 colon
T-47D breast = system: T-47D breast
TK-10 renal = system: TK-10 renal
U251 CNS = system: U251 CNS
UACC-257 melanoma = system: UACC-257 melanoma
UACC-62 melanoma = system: UACC-62 melanoma
UO-31 renal = system: UO-31 renal

CC12NC(=C(C#N)C#N)C(C#N)=C3NC(N)=C(C#N)C(=C31)Oc1ccccc12 (centres undefined)
TGI (786-0 renal): > 100 µM
TGI (A498 renal): > 100 µM
TGI (A549 NSCLC): > 100 µM
TGI (ACHN renal): > 100 µM
TGI (BT-549 breast): > 100 µM
TGI (CAKI-1 renal): > 100 µM
TGI (CCRF-CEM leukemia): > 100 µM
TGI (COLO 205 colon): > 100 µM
TGI (DU-145 prostate): > 100 µM
TGI (EKVX NSCLC): > 100 µM
TGI (HCC-2998 colon): > 100 µM
TGI (HCT-116 colon): > 100 µM
TGI (HCT-15 colon): > 100 µM
TGI (HL-60(TB) leukemia): > 74.9 µM
TGI (HOP-62 NSCLC): > 38.3 µM
TGI (HOP-92 NSCLC): > 74.1 µM
TGI (HS 578T breast): > 100 µM
TGI (HT29 colon): > 100 µM
TGI (IGROV1 ovarian): > 100 µM
TGI (K-562 leukemia): > 100 µM
TGI (KM12 colon): > 100 µM
TGI (LOX IMVI melanoma): > 100 µM
TGI (M14 melanoma): > 100 µM
TGI (MALME-3M melanoma): > 100 µM
TGI (MCF7 breast): > 100 µM
TGI (MDA-MB-231 breast): > 100 µM
TGI (MDA-MB-435): > 100 µM
TGI (MDA-N): > 31.6 µM
TGI (MOLT-4 leukemia): > 31.6 µM
TGI (NCI-H226 lung): > 100 µM
TGI (NCI-H23 lung): > 100 µM
TGI (NCI-H460 lung): > 100 µM
TGI (NCI-H522 lung): > 100 µM
TGI (NCI/ADR-RES ovarian): > 100 µM
TGI (OVCAR-3 ovarian): > 24.9 µM
TGI (OVCAR-4 ovarian): > 100 µM
TGI (OVCAR-5 ovarian): > 100 µM
TGI (OVCAR-8 ovarian): > 100 µM
TGI (PC-3 prostate): > 100 µM
TGI (RPMI-8226 leukemia): > 100 µM
TGI (RXF 393 renal): 6.76 µM
TGI (SF-268 CNS): > 100 µM
TGI (SF-295 CNS): > 100 µM
TGI (SF-539 CNS): > 88.6 µM
TGI (SK-MEL-2 melanoma): > 80.9 µM
TGI (SK-MEL-28 melanoma): > 100 µM
TGI (SK-MEL-5 melanoma): > 22.9 µM
TGI (SK-OV-3 ovarian): > 100 µM
TGI (SN12C renal): > 100 µM
TGI (SNB-19 CNS): > 100 µM
TGI (SNB-75 CNS): > 100 µM
TGI (SR leukemia): > 100 µM
TGI (SW-620 colon): > 100 µM
TGI (T-47D breast): > 100 µM
TGI (TK-10 renal): > 100 µM
TGI (U251 CNS): > 100 µM
TGI (UACC-257 melanoma): > 100 µM
TGI (UACC-62 melanoma): > 100 µM
TGI (UO-31 renal): > 100 µM
